Entries after “also recorded” stand apart in the source; their conditions may differ. Read-outs that look alike come from different tables or passages of the source.
Key:
[1] = test system: P. aeruginosa PAO1 biofilm; test: crystal violet static biofilm inhibition assay; assay type: cell-based, Pseudomonas aeruginosa; conditions: for IC50: Pseudomonas aeruginosa, PAO1
Description: Stilbenes 1, 2, and 4a-b were tested for inhibition of biofilm formation in a wild-type P. aeruginosa strain (PAO1) at 500 μM using standard static biofilm growth assays.
Biofilms were grown in a modified M9 minimal media in 96-well microtiter plates, and crystal violet staining of the surface-associated biomass was used to quantify biofilm growth at 12 and 24 h (see The Examples).
A modified version of the widely used crystal violet (CV) microtiter plate biofilm assay, first described by Christensen et al. and later popularized by O'Toole et al., [57] was used in this study and is described in detail below.
Compounds to be evaluated for biofilm modulatory activity were added to the assay microtiter plates by means of a “solvent evaporation” delivery. This delivery method involves preparation of compound stock solutions, addition of stocks to microtiter plates at appropriate volumes to obtain target molar quantities per well, evaporation of the solvent, and re-solubilization of the compound in the final assay medium upon inoculum addition. This delivery method was adopted to avoid the biofilm inhibitory effects observed with an “organic solvent-to-solution” delivery method (e.g., DMSO-to-media; data not shown), which is more commonly done in small molecule screens. EtOH was chosen as the solvent for solvent evaporation delivery in this study based on the chemical resistance limitations of polystyrene microtiter plates. Prior to each experiment, EtOH stock solutions of compounds being evaluated were prepared, diluted, and added to microtiter plates at varied volumes to obtain a target final concentration per well upon inoculum addition. Plates were incubated at 37° C. to evaporate EtOH and sterilized in a Baker SterilGARD III Advance Biological Safety Cabinet by UV-C germicidal irradiation for 30 min (lids removed). EtOH only was added to wells designated as “no compound” positive controls (Pos. Con.) and “no bacteria” negative controls (note, controls lacking bacteria yielded no significant staining in the CV assay (data not shown)). The outer wells were never used for test samples as evaporation and significant deviations in growth were observed; thus, outer wells were filled with sterile 18 MΩ H2O to minimize these effects.
Bacterial samples for biofilm assessment were prepared by first streaking a freezer stock of P. aeruginosa PAO1 on an LB/agar plate and incubating at 37° C. for ˜16 h. Single colonies were selected and used to inoculate LB medium (10 mL) in a 25 mL Erlenmeyer flask. The culture was grown on an incubator-shaker (200 rpm) at 37° C. for ˜16 h to an OD600 of ˜1.0. Overnight cultures were gently decanted into falcon tubes to minimize transfer of biofilm produced during overnight growth. An inoculating culture was prepared by centrifuging an aliquot of overnight culture at 3,000 rpm for 10 min, removal of the supernatant, and then re-suspending the pellet in 95:5 M9+:LB at 10-fold the initial volume (effecting a 1-in-10 dilution; OD600 ˜0.1-0.2). Using a multi-channel pipette, this culture was added to test microtiter plates in 200 μL aliquots. The well contents were mixed using a 10 μL multi-channel pipette in a swirling motion; insoluble compound samples were noted and later excluded from the data set as needed.
Plates were covered with the provided lid and incubated statically at 37° C. for 12-24 h. Maximal biofilm formation is obtained at 24 h, after which the amount of biofilm declines unless fresh nutrients are provided. After incubation, the OD600 was measured, and the bacterial suspension was removed by inverting and shaking the plate over a waste pan and then taping on a paper towel (process termed “dumping”). Non-biofilm associated biomaterial was removed by adding 225 μL PBS and dumping (process termed “washing”) and then repeating this washing process. Biofilm was fixed to the microtiter plates by uncovering the plate and thermally dehydrating at 37° C. […]

[2] = test system: P. aeruginosa PAO1 gen-gfp; test: constitutive GFP production (general protein synthesis); assay type: cell-based, Pseudomonas aeruginosa; conditions: 24 h; dose-response
Description: Compounds 7 and 21 were tested for their effect on general protein synthesis in P. aeruginosa. In these assays a P. aeruginosa strain that constitutively produced GFP was employed. […] [59]
The constitutively-expressing genomic (gen)-GFP strain, PAO1 gen-gfp, was prepared using the mini-Tn7 transposon system reported by Lambertsen et al. and Koch et al. to introduce the Tn7 element miniTn7-gfp2 into the neutral chromosomal site attTn7 in the PAO1 genome. The Tn7 element miniTn7-gfp2 was chosen for these studies because it encodes for the same GFP variant, GFPmut3b, used in our QS reporters, discussed herein below. However, rather than being an unstable GFP under the control of the laslI or rhII QS-dependent promoter as in the QS reporters, GFP is stable and under the control of the constitutive E. coli lac-promoter derivative PA1/04/03. The use of this strain allows a comparison of QS-dependent and non-QS-dependent gene expression in the presence of 7 and 21.
Compounds 7 and 21 were evaluated for their ability to affect constitutive GFP production in the P. aeruginosa PAO1 gen-gfp strain using the static biofilm assay conditions described above. […] Measurements of FL500/540 and OD600 were made at 24 h, after which the samples were evaluated for biofilm formation using the CV procedure. […]

[3] = 12 h incubation, CV assay, read-out: 12 h biofilm IC50
[4] = 24 h incubation, CV assay, read-out: 24 h biofilm IC50
[5] = added exogenously to solution, read-out: IC50 for biofilm inhibition
[6] = 24 h, read-out: IC50 for biofilm inhibition
[7] = Table 1, crystal violet, read-out: IC50, P. aeruginosa PAO1 biofilm inhibition

Compound | inhibition of biofilm formation ([1]; 24 h) | IC50 [1, 3] | IC50 [1, 4] | IC50 [1, 5] | IC50 [1, 6] | IC50 [1, 7] | effect on constitutive GFP production / protein synthesis [2] | concentrations at which inhibitor (not activator) of biofilm formation ([1]; P. aeruginosa) | fold more active than parent compound 7 ([1]; biofilm inhibition IC50)
Nc1nc2ccccc2[nH]1 [Compound 7, 2-aminobenzimidazole] | 94% | 50.5 µM | 46.8 µM | 47 µM | 47 µM | 47 µM | only inhibit the production of GFP at concentrations where bacterial growth is also inhibited; also recorded: do not simply globally affect protein synthesis | – | –
Cc1cc2nc(N)[nH]c2cc1C [Compound 21, 5,6-Dimethyl-2-aminobenzimidazole] | – | 4.3 µM | 4 µM | 4 µM | 4 µM | 4 µM | only inhibit the production of GFP at concentrations where bacterial growth is also inhibited; also recorded: do not simply globally affect protein synthesis | ≤ 3.2 mM | ~10 fold

— US10292390B2, “Inhibition and dispersion of bacterial biofilms with 2-aminobenzimidazole derivatives” (WISCONSIN ALUMNI RESEARCH FOUNDATION, priority 2011, dated 2019)
